Reference: US20010056085A1, “Methods of using vesicant drug formulations” (priority 1996, published 2001)
Like-named read-outs stand apart in the source and are kept apart here.

Test: Half-life of ADR destruction by UVA light in the presence of test compounds (decrease in absorbance at 480 nm)
Assay type: physicochemical
[1] = UVA light, 100 μM test compound with 0.5 μM riboflavin
[2] = UVA light, 100 μM test compound alone
[3] = UVA light, test compound alone, +4% DMSO
[4] = UVA light, with 0.5 μM riboflavin, +4% DMSO

| SMILES | Half-Life of ADR Destruction, 100 μM Test Compound and 0.5 μM Riboflavin [1] | Half-Life of ADR Destruction, 100 μM Test Compound [2] | further results |
| --- | --- | --- | --- |
| N[C@@H](Cc1cccc(O)c1)C(=O)O [3-Hydroxy Phenylalanine] | 34.2 ± 5.9 min |  |  |
| Nc1ccc(CCC(=O)O)cc1 [3-(4-Aminophenyl) Propionic Acid] | 6.41 min |  |  |
| COc1cc(C=CC(=O)O)cc(OC)c1O [3,5-Dimethoxy-4-Hydroxy Cinnamic Acid] | 50.2 min | 75.3 min |  |
| N[C@@H](Cc1c[nH]c2ccc(O)cc12)C(=O)O [5-Hydroxy-tryptophan] | 301.0 min |  |  |
| Cc1cc(C(=O)O)ccc1N [4-Amino-3-Methyl Benzoic Acid] | 15.8 min |  |  |
| CCC(=O)c1ccc(OC)cc1 [4-Methoxypropriophenone] |  |  | Half-Life of ADR Destruction, 100 μM Test Compound and 0.5 μM Riboflavin: 30.1 min |
| CCc1ccc[nH]1 [2-Ethyl Pyrrole] | 10.0 min |  |  |
| O=C(O)c1cc(=O)c2ccccc2o1 [4-Chromone-2-carboxylic acid] | 14.3 min | 15.8 min |  |
| CCCc1ccccc1N [2-Propyl Aniline] | 9.41 min |  |  |
| Cc1cc2cccc(C)c2[nH]1 [2,7-Dimethyl Indole] | 6.27 min |  |  |
| O=S(=O)(O)c1ccc2ccccc2c1 [2-Naphthalenesulfonic acid] |  | 42.0 min |  |
| Nc1ccc(C=CC(=O)O)cc1 [4-Amino Cinnamic Acid] | 16.7 min | 50.2 min |  |
| Nc1nc2c(ncn2[C@@H]2O[C@H](CO)[C@@H](O)[C@H]2O)c(=O)[nH]1 [Guanosine] | 14.3 min | 75.3 min |  |
| Nc1ccc(CCO)cc1 [4-Amino Phenylethyl Alcohol] | 10.8 min |  |  |
| COc1ccc2cc(CCC(C)=O)ccc2c1 [Nabumetone, 4-(6-Methoxy-2-naphthyl)-butan-2-one, reference compound] | 8.6 min | 27.4 min | Half-Life of ADR Destruction, 100 μM Test Compound and 0.5 μM Riboflavin (UVA light, 100 μM test compound with 0.5 μM riboflavin, listed as 4-(6-Methoxy-2-naphthyl)-butan-2-one (Nabumetone)): 8.60 min |
| COc1ccc(CCCO)cc1 [3-(4-Methoxyphenyl)-1-Propanol] | 1.68 min | 43.0 min |  |
| COc1ccc(C=CC=O)cc1 [4-Methoxy Cinnamaldehyde] | 50.2 min |  |  |
| Cc1c(N)cccc1C(=O)O [3-Amino-2-Methyl Benzoic Acid] | 23.2 min |  |  |
| CC(=O)c1ccccc1O [2′-Hydroxyacetophenone] | 43.0 min | 50.2 min |  |
| O=C(O)c1ccc2ccccc2c1 [Naphthalene-2-carboxylic acid] | 43.0 min | 50.2 min |  |
| COc1ccc(C=CCO)cc1 [4-Methoxy Cinnamyl Alcohol] | 9.12 min | 50.2 min |  |
| COc1ccc(C=CC(=O)O)cc1 [4-Methoxy Cinnamic Acid] | 5.90 min | 75.3 min |  |
| Nc1ccc(C(=O)c2ccccc2)cc1 [4-Aminobenzophenone] | 21.5 min |  |  |
| Nc1cc([N+](=O)[O-])cc([N+](=O)[O-])c1 [3,5-Dinitro Aniline] |  |  | Half-Life of ADR Destruction, 100 μM Test Compound and 0.5 μM Riboflavin: 75.3 min |

| SMILES | Half-Life of ADR Destruction, 100 μM Test Compound and 0.5 μM Riboflavin [1] | Half-Life of ADR Destruction, 100 μM Test Compound [2] | further results |
| --- | --- | --- | --- |
| OCC=Cc1ccccc1 [Cinnamyl Alcohol] |  | 43.0 min |  |
| COc1ccc2cc(C#N)ccc2c1 [6-Methoxynaphthalene-2-nitrile] | 20.1 min | 23.2 min |  |
| Cn1ccc2ccccc21 [1-methyl Indole] | 33.5 min |  |  |
| CC(=O)Oc1ccc2ccccc2c1 [2-Naphthyl acetate] |  |  | Half-Life of ADR Destruction, 100 μM Test Compound [3]: 43.0 min; Half-Life of ADR Destruction, 100 μM Test Compound and 0.5 μM Riboflavin [4]: 33.5 min |
| O=C(O)c1ccc[nH]1 [Pyrrole-2-carboxylic acid] | 23.2 min |  |  |
| CC(=O)c1ccc2[nH]c3ccccc3c2c1 [3-Acetylcarbazole] |  |  | Half-Life of ADR Destruction, 100 μM Test Compound [3]: 30.1 min; Half-Life of ADR Destruction, 100 μM Test Compound and 0.5 μM Riboflavin [4]: 23.2 min |
| Nc1ccccc1S(=O)(=O)O [2-Amino Benzenesulfonic acid] | 20.1 min |  |  |
| COc1cccc(C=CC(=O)O)c1 [3-Methoxy Cinnamic Acid] | 21.5 min | 43.0 min |  |
| O=C(c1ccco1)c1cccs1 [2-Furyl-2-thienyl ketone] |  | 7.00 min |  |
| Cn1cc(C[C@H](N)C(=O)O)c2ccccc21 [1-Methyl-tryptophan] | 9.71 min |  |  |
| Nc1ccccc1F [2-Fluoro Aniline] | 8.36 min |  |  |
| Cc1ccc2cc[nH]c2c1 [6-Methyl Indole] | 24.2 ± 1.3 min |  |  |
| O=C(O)c1ccc(C(=O)c2ccccc2)cc1 [4-Benzophenone-carboxylic acid] |  |  | Half-Life of ADR Destruction, 100 μM Test Compound: 10.0 min; Half-Life of ADR Destruction, 100 μM Test Compound and 0.5 μM Riboflavin: 7.72 min |
| c1cc[nH]c1 [Pyrrole] |  |  | Half-Life of ADR Destruction, 100 μM Test Compound and 0.5 μM Riboflavin: 11.6 min |
| CC(=O)c1ccc2cc(C)ccc2c1 [6-Methyl-2-acetonaphthone] | 7.53 min | 8.85 min |  |
| CN(C)c1ccc(C(=O)O)cc1 [4-(Dimethylamino) Benzoic Acid] | 75.3 min |  |  |
| Nc1cccc(S(=O)(=O)c2cccc(N)c2)c1 [3,3′-Diamino Phenylsulfone] |  |  | Half-Life of ADR Destruction, 100 μM Test Compound and 0.5 μM Riboflavin: 3.81 min |
| CCc1c(C)c[nH]c1C [2,4-Dimethyl-3-ethyl Pyrrole] | 20.1 min |  |  |
| NCc1ccc(N)cc1 [4-Amino Benzylamine] | 7.34 ± 1.13 min |  |  |
| O=C(/C=C/c1ccc(O)c(O)c1)O[C@@H]1C[C@](O)(C(=O)O)C[C@@H](O)[C@H]1O [3-Caffeolyquinic Acid] | 100.3 min | 100.3 min |  |
| Nc1ccc(C(=O)O)cc1 [4-Amino Benzoic Acid] | 20.6 ± 9.7 min |  |  |
| COc1ccc2cc(C(C)=O)ccc2c1 [6-Methoxy-2-acetonaphthone] |  | 15.8 min |  |
| CCCCCCc1ccc(N)cc1 [4-Hexyl Aniline] | 5.28 min |  |  |
